Measured values published in ChEMBL document CHEMBL1152675, “3,4-Dihydropyrimido(1,2-a)indol-10(2H)-ones as potent non-peptidic inhibitors of caspase-3” (Bioorg Med Chem, 2009).

Assay: Chemical stability in 90% deionized water after 24 hrs by NMR spectroscopy
Type: physicochemical
Details: read-out: Stability
In the case of `O=C1C2=NCC3(CCCC3)CN2c2ccc(S(=O)(=O)N3CCC[C@H]3COc3ccccc3)cc21`, the remaining at 24 h is reported as 89%. Molecule `COC[C@@H]1CCCN1S(=O)(=O)c1ccc2c(c1)C(=O)C1=NCC3(CCCC3)CN12` has a remaining at 24 h of 87%. For `O=C1C2=NCC3(CCCCC3)CN2c2ccc(S(=O)(=O)N3CCC[C@H]3COc3ccccc3)cc21`, the remaining at 24 h was 72%. Molecule `O=C1C2=NCC3(CCC3)CN2c2ccc(S(=O)(=O)N3CCC[C@H]3COc3ccccc3)cc21` has a remaining at 24 h of 69%. Molecule `COC[C@@H]1CCCN1S(=O)(=O)c1ccc2c(c1)C(=O)C1=NCC3(CCC3)CN12` has a remaining at 24 h of 74%. In the case of `COC[C@@H]1CCCN1S(=O)(=O)c1ccc2c(c1)C(=O)C1=NCC3(CCCCC3)CN12`, the remaining at 24 h is reported as 71%.
